{"source": "patent US6750220B2", "about": "“Amine salt of an integrin receptor antagonist” (Merck & Co., Inc., priority 2001, dated 2004)", "test": "solubility in water", "type": "physicochemical", "details": "compared with the parent zwitterionic compound of structural formula IV", "note": "Structures can show the parent of a compound that is named as a salt.", "data": [{"compound": "O=C(O)CC(CCCCCCc1ccc2c(n1)NCCC2)c1cncnc1", "note": "(stereo not shown) [TRIS salt, tris(hydroxymethyl)aminomethyl (“TRIS”) salt of 3-(pyrimidin-5-yl)-9-(5,6,7,8-tetrahydro-[1,8]-naphthyridin-2-yl)-nonanoic acid]", "values": [{"measurement": "solubility in water", "value": "greater solubility in water than the parent zwitterionic compound"}]}]}
